{"source": "PubChem BioAssay AID687023", "about": "(Broad Institute, 2013)", "key": {"[1]": {"assay": "inhibition of Env-driven cell fusion – HIV entry, plate reader, dry powder, dose response (AID 687023)", "details": "Env-mediated cell-cell fusion, plate reader"}, "[2]": {"system": "Env-mediated cell-cell fusion, plate reader", "assay": "inhibition of Env-driven cell fusion – HIV entry, plate reader, dry powder, dose response (AID 687023)"}}, "note": "“And” between values parts separate entries of the source, which are not always exact repeats. Equal values may be shown once. The source made the active and inactive calls. How the calls were made is not given here.", "data": [{"smiles": "CCOc1ccc(S(=O)(=O)NCc2ccccn2)cc1", "values": [{"measurement": "activity change, negative = inhibition", "setting": "[1]; at 35 µM (top of the series)", "result": "34.6% (inactive)"}]}, {"smiles": "CCOc1ccc(S(=O)(=O)NC(C)c2ccncc2)cc1", "note": "(stereo unspecified)", "values": [{"measurement": "AC50", "setting": "[2]", "result": "1.16 µM and 2.43 µM"}]}, {"smiles": "CCCOc1ccc(S(=O)(=O)NCc2ccncc2)c2ccccc12", "values": [{"measurement": "AC50", "setting": "[2]", "result": "0.945 µM and 2.88 µM"}]}, {"smiles": "Cc1noc(C)c1S(=O)(=O)Nc1cccc2c1O[C@@H](CN(C)Cc1ccc(C(F)(F)F)cc1)[C@H](C)CN([C@H](C)CO)C2=O", "values": [{"measurement": "activity change, negative = inhibition", "setting": "[1]; at 35 µM (top of the series)", "result": "15.3% (inactive)"}]}, {"smiles": "Nc1nonc1C(=O)NCCNCc1c(OCc2ccccc2F)ccc2ccccc12", "values": [{"measurement": "AC50", "setting": "[2]", "result": "9.38 µM and 3.61 µM"}]}, {"smiles": "CCCn1nc(C(=O)Nc2ccc3nc(N4CCOCC4)sc3c2)ccc1=O", "values": [{"measurement": "AC50", "setting": "[2]", "result": "4.24 µM and 9.79 µM"}]}, {"smiles": "Cc1ccc(C)n1-c1ccc(C(=O)O)c(O)c1", "values": [{"measurement": "activity change, negative = inhibition", "setting": "[1]; at 35 µM (top of the series)", "result": "0.014% (inactive)"}]}, {"smiles": "Cc1ccc(-c2nnc3ccc4c(C(F)(F)F)cc(C(F)(F)F)nc4n23)cc1", "values": [{"measurement": "activity change, negative = inhibition", "setting": "[1]; at 1.2 µM (top of the series)", "result": "38.4% (inactive)"}]}, {"smiles": "COc1ccc(CC(=O)Nc2cccc(S(=O)(=O)N3CCCCCC3)c2)cc1OC", "values": [{"measurement": "AC50", "setting": "[2]", "result": "3.95 µM and 1.88 µM"}]}, {"smiles": "Cc1noc(C)c1S(=O)(=O)Nc1cccc2c1O[C@@H](CN(C)Cc1ccc(C(F)(F)F)cc1)[C@H](C)CN([C@@H](C)CO)C2=O", "values": [{"measurement": "activity change, negative = inhibition", "setting": "[1]; at 35 µM (top of the series)", "result": "56% (inactive)"}]}, {"smiles": "Cc1noc(C)c1S(=O)(=O)Nc1cccc2c1O[C@H](CN(C)Cc1ccc(C(F)(F)F)cc1)[C@@H](C)CN([C@H](C)CO)C2=O", "values": [{"measurement": "activity change, negative = inhibition", "setting": "[1]; at 1.2 µM (top of the series)", "result": "53.5% (inactive)"}]}, {"smiles": "CC1(C)CC(NC(=O)C(=O)Nc2ccc(Cl)cc2)CC(C)(C)N1", "values": [{"measurement": "AC50", "setting": "[2]", "result": "> 70 µM (inactive) and 27.4 µM"}]}, {"smiles": "Oc1ccc(CNc2ccccc2F)c2cccnc12", "values": [{"measurement": "activity change, negative = inhibition", "setting": "[1]; at 1.2 µM (top of the series)", "result": "33.1% (inactive)"}]}, {"smiles": "CC(C)(C)c1ccc(-c2noc(CCC(=O)NCC3CCCO3)n2)cc1", "note": "(stereo unspecified)", "values": [{"measurement": "AC50", "setting": "[2]", "result": "0.0954 µM and 0.484 µM"}]}, {"smiles": "CCOc1ccc(OCC)c(S(=O)(=O)NCc2ccncc2)c1", "values": [{"measurement": "activity change, negative = inhibition", "setting": "[1]; at 3.8 µM (top of the series)", "result": "30.3% (inactive)"}]}, {"smiles": "COc1ccccc1CCNCc1ccc(OC)c(OCc2ccccc2)c1", "values": [{"measurement": "activity change, negative = inhibition", "setting": "[1]; at 35 µM (top of the series)", "result": "-63.1% (inactive)"}]}, {"smiles": "COc1ccc(-c2nn(C)c(=O)c3ccccc23)cc1NC(=O)Cn1nc(C)c2ccccc2c1=O", "values": [{"measurement": "AC50", "setting": "[2]", "result": "4.03 µM and 23.5 µM"}]}, {"smiles": "N=C1Sc2ccccc2C2=NCCCN12", "values": [{"measurement": "activity change, negative = inhibition", "setting": "[1]; at 35 µM (top of the series)", "result": "2.5% (inactive)"}]}, {"smiles": "Cc1ccc(S(=O)(=O)Nc2cccc3c2O[C@@H](CN(C)Cc2ccc(Cl)c(Cl)c2)[C@@H](C)CN([C@H](C)CO)C3=O)cc1", "values": [{"measurement": "activity change, negative = inhibition", "setting": "[1]; at 35 µM (top of the series)", "result": "-87.2% (inactive)"}]}, {"smiles": "O=C(CCc1ccc(S(=O)(=O)N2CCOCC2)cc1)Nc1nc(COc2ccccc2)cs1", "values": [{"measurement": "AC50", "setting": "[2]", "result": "3.51 µM and 8.07 µM"}]}, {"smiles": "COC(=O)COc1ccc(S(=O)(=O)NCc2ccncc2)cc1", "values": [{"measurement": "activity change, negative = inhibition", "setting": "[1]; at 3.8 µM (top of the series)", "result": "62.5% (inactive)"}]}]}
